Reference: paper PMC6593233 (Frontiers in Pharmacology, 2019)
Entries after “also recorded” stand apart in the source; their conditions may differ. Read-outs that look alike come from different tables or passages of the source.

Assays:
hKCa2.3 [1] = biological target: T1, hKCa2.3 (Homo sapiens, UniProt Q9UGI6); details: hKCa2.3, automated patch clamp, cited from earlier work
hKCa2.2 [2] = biological target: T2, hKCa2.2 (Homo sapiens, UniProt Q9H2S1); parameters: method as in Simó-Vicens et al., 2017a; details: hKCa2.2, automated patch clamp; ref Simó-Vicens et al., 2017a; cited from earlier work
[3] = test system: isolated guinea pig hearts; assay: Isolated Langendorff-perfused guinea pig hearts: AERP, QTcB, heart rate
Procedure: AP14145 was supplied by Acesion Pharma. Dofetilide was purchased at Sigma-Aldrich (St. Louis, USA) for the Langendorff and Hello Bio (Bristol, UK) for the closed chest in vivo experiments. Ondansetron was purchased at Sigma-Aldrich (St. Louis, USA). For the Langendorff perfused heart experiments the compounds were dissolved in DMSO to make stock solutions and diluted to the final concentration in the Krebs-Henseleit buffer during the experiments. The final concentration of DMSO never exceeded 0.3% in the buffer. For the closed chest experiments, the compounds were first dissolved in PEG-400 and then diluted to a 50% saline and 50% PEG-400 solution. The Langendorff perfused heart experiments were performed using a total of 24 female Dunkin Hartley guinea pigs (350–450 g, Charles River, Saint-Germain-Nuelle, France). Guinea pigs were anesthetized with an i.p. injection of pentobarbital 200 mg/ml, lidocaine hydrochloride 20 mg/ml, (Glostrup Apotek, Denmark), dose 0.150 ml/100 g body weight. A tracheotomy was performed and the guinea pigs were ventilated with 60 strokes*5 ml/min using a rodent ventilator (7025 Rodent ventilator, Ugo Basile, Italy). The hearts were excised and cannulated in situ through a small puncture of the aorta and connected to the Langendorff retrograde perfusion setup (Hugo Sachs Elektronik, Harvard Apparatus GmbH, March, Germany). The hearts were retrogradely perfused at a constant perfusion pressure of 60 mmHg at 37°C, pH 7.4, Krebs-Henseleit buffer (in mM: […] The aortic perfusion pressure was determined with an ISOTEC transducer (Hugo Sachs Elektronik) and the coronary flow was measured with an ultrasonic flow meter (Transonic Systems Inc., USA). Both were connected to an amplifier (Hugo Sachs Elektronik). The electrical activity was measured using volume conducted ECGs and by placing epicardial monophasic action potential electrodes (MAPs) on the atria and ventricles. The hearts were immersed into a temperature-controlled bath containing pH 7.4 Krebs-Henseleit buffer. Perfusion pressure, coronary flow, ECG, and MAP analogue signals sampled at a frequency of 2k/s and converted by a 16/30 data acquisition system from PowerLab systems (ADInstruments, Oxford, UK) and monitored using LabChart 7 software (ADInstruments). A bipolar pacing electrode was placed on the right atrial appendage for epicardial pacing stimulation using square pulses of 2 ms durations at three times diastolic threshold at 300 beats per minute. During the entire experiment, the ECG was monitored and monophasic action potential electrodes were placed on each chamber of the heart. The hearts were then left to stabilize for 20 min at intrinsic heart rhythm. The right AERP was measured by 10 regular stimuli (S1) followed by a premature extra stimulus (S2) applied with 1-ms increments. The AERP was defined as the longest S1–S2 interval failing to elicit an action potential. […] After a period of stabilization, every Langendorff experiment consisted of four 20-min episodes ( Figure 1 ). […] During the entire experiment, the AERP was measured every 5 min and the ECG was continuously monitored.

guinea pigs = assay: In vivo closed chest atrially paced guinea pig model: AERP, QTcB, heart rate
Procedure: AP14145 was supplied by Acesion Pharma. […] For the Langendorff perfused heart experiments the compounds were dissolved in DMSO to make stock solutions and diluted to the final concentration in the Krebs-Henseleit buffer during the experiments. The final concentration of DMSO never exceeded 0.3% in the buffer. For the closed chest experiments, the compounds were first dissolved in PEG-400 and then diluted to a 50% saline and 50% PEG-400 solution. A total of 18 female guinea pigs (Dunkin Hartley HsdPoc : GH, Charles River) weighing 350-450 g were anesthetized with 5% isoflurane/oxygen in a sedation box. The guinea pigs were placed under artificial ventilation through a cannula placed in the trachea and anesthesia was reduced to 2.5% isoflurane/oxygen throughout the experiment. The temperature of the guinea pigs was monitored with a rectal thermometer and kept stable during the experiment using a heating lamp. Needle ECG electrodes were placed in each limb for ECG recordings (ADInstruments, UK). An electrophysiological catheter with eight electrodes (EPR-802) (Millar Inc., US) was placed in the right atrium via the right jugular vein. The two electrodes proximal to the tip of the catheter ([[…] et al., 2006]; [[…] et al., 2012]) were used to pace the atrium and six electrodes ([Waldo et al., 1996]; [[…] et al., 2003]; [Roukoz and […] et al., 2009]; [Grunnet et al., 2012]; [Zimetbaum, 2012]) were used to measure the electrical activity in the atrium. The AERP was measured as in the Langendorff experiments. Between the AERP recordings, the heart remained unpaced. An intravenous catheter (inside diameter 0.5, outside diameter 0.8 mm, Natsume Seisakusho, Japan) was placed in the right jugular vein alongside the electrophysiology catheter for drug infusion. […] First a period of 20 min baseline recording was conducted with AERP measurements every 5 min ( Figure 1 ). […] The AERP was measured every 5 min during baseline and every 2 min during and after infusion.

hKCa2.2 [4] = biological target: T2, hKCa2.2; parameters: method as in Simó-Vicens et al., 2017b; details: hKCa2.2, manual patch clamp; ref Simó-Vicens et al., 2017b; cited from earlier work
hKv11.1 [5] = biological target: T3, hKv11.1 (Homo sapiens, UniProt Q12809); parameters: method as in Diness et al., 2017; details: hKv11.1, automated patch clamp; ref Diness et al., 2017; cited from earlier work
T3 construct: expressed in transfected cells
T3 sequence (Q12809 whole entry): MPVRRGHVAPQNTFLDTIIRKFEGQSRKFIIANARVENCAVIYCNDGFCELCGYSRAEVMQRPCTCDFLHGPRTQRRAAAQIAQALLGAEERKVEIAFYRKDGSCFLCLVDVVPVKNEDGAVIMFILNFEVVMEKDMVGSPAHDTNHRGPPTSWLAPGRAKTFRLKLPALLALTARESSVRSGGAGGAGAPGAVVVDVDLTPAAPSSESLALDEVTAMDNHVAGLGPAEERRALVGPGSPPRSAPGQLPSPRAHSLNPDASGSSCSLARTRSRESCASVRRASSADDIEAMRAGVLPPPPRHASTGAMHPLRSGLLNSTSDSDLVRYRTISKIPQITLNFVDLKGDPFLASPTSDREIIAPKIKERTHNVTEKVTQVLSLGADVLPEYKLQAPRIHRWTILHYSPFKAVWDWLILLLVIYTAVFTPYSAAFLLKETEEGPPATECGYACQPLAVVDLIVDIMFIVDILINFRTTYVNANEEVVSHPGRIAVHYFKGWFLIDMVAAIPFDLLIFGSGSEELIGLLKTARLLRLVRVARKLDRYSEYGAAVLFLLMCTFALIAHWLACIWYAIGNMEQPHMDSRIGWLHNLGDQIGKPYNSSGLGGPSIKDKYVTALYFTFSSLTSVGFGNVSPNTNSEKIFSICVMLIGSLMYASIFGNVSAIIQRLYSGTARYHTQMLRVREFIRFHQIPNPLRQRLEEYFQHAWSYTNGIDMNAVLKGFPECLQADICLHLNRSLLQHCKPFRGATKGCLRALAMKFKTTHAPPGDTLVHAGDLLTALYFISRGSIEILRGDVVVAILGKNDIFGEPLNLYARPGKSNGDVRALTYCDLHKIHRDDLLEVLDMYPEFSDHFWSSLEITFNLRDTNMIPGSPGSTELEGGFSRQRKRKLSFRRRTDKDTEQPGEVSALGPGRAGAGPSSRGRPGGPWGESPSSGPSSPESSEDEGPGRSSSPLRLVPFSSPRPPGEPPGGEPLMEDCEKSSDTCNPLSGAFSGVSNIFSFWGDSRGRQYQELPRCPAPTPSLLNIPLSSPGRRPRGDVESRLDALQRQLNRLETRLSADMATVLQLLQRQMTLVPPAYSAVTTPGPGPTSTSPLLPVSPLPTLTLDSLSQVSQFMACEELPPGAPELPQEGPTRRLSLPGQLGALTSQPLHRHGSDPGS

hKCa2.3 [6] = biological target: T1, hKCa2.3; parameters: method as in Simó-Vicens et al., 2017b; details: hKCa2.3, manual patch clamp; ref Simó-Vicens et al., 2017b; cited from earlier work
hKCa2.2 [7] = biological target: T2, hKCa2.2; assay: Manual whole-cell patch clamp, IKCa in HEK293 cells transiently transfected with hKCa2.2; type: cell-based
Procedure: These stock solutions were stored at −20°C and aliquots were solubilized at the desired concentration on the day of the experiment.
(§1) The KCa2.2 manual patch-clamp experiments and KCa2.2/KCa2.3 QPatch experiments were conducted using symmetrical K^+ solutions. The extracellular solution contained (in mM) 0.1 CaCl2, 3 MgCl2, 154 KCl, 10 HEPES, and 10 glucose (pH = 7.4 and 285–295 mOsm). The intracellular solution contained (in mM) 8.106 CaCl2 (final free Ca^2+ concentration of 400 nM), 1.167 MgCl2, 10 EGTA, 108 KCl, 10 HEPES, 31.25/10 KOH/EGTA, and 15 KOH (pH = 7.2).
The cells were cultured in Dulbecco’s modified Eagle’s medium (DMEM1965, Thermo Fisher, USA) supplemented with 26.2 mM NaHCO3, 25 mM HEPES, 10 ml L^-1 Glutamax (Gibco, USA), 10% fetal bovine serum (Biowest, France), and 100 U ml^-1 of penicillin/streptomycin (Sigma, Germany); 1 to 2 days after the transfection, patch clamp experiments were conducted. […]
Manual patch clamp recordings were made using a HEKA EPC9 amplifier and the PatchMaster software (HEKA Elektronik, Germany) at room temperature using the whole cell configuration. Fluorescence was used to detect successfully transfected cells. […]
(§2) For IKCa and IKr, the mean of the last three data points was used for further analysis. […] Individual IC50 values were calculated for each experiment and then used to obtain the final mean ± S.E.M.

hKCa2.3 [8] = biological target: T1, hKCa2.3; assay: Automated patch clamp (QPatch), IKCa in HEK293 cells stably expressing hKCa2.3; type: cell-based
Procedure: as §1
(§3) Bicuculline methiodide was used as a positive control for KCa2 specific current at the beginning and the end of the experiment.
(§4) The cells were cultured in Dulbecco’s modified Eagle’s medium (DMEM1965, Thermo Fisher, USA) supplemented with 26.2 mM NaHCO3, 25 mM HEPES, 10 ml L^-1 Glutamax (Gibco, USA), 10% fetal bovine serum (Biowest, France), 100 U ml^-1 of penicillin/streptomycin (Sigma, Germany), and 100 µg/ml Geneticin (Gibco, UK) […]
as §2

hKCa2.2 [9] = biological target: T2, hKCa2.2; assay: Automated patch clamp (QPatch), IKCa in HEK293 cells stably expressing hKCa2.2; type: cell-based; details: hKCa2.2, automated patch clamp, present study, n = 8
Procedure: as §1, §3, §4, §2

hKv11.1 [10] = biological target: T3, hKv11.1; assay: Automated patch clamp (QPatch), IKr in CHO-K1 cells stably expressing Kv11.1; type: cell-based; details: Kv11.1 current
Procedure: For the Kv11.1 experiments conducted on the automated QPatch machine, the extracellular solution contained (in mM) 145 NaCl, 4 KCl, 2 CaCl2, 1 MgCl2, 10 HEPES, and 10 glucose (pH = 7.4 and 305 mOsm adjusted with sucrose). The intracellular solution contained (in mM) 120 KCl, 31.25/10 KOH/EGTA, 5.4 CaCl2, 1.75 MgCl2, 4 mM Na2ATP, and 10 HEPES (pH = 7.2 and 285–296 mOsm adjusted with sucrose). Recordings were made before and after application of drug.
The cells were cultured in DMEM F12 (Sigma, Germany), 10% fetal bovine serum (Biowest, France) and 100 U ml^-1 of penicillin/streptomycin (Sigma, Germany), 100 µg/ml Geneticin (Gibco, UK), 100 µg/ml hygromycin (Sigma-Aldrich), and 2 mM glutamine (Gibco, UK).
On the day of experiment, when cells reached about 70–90% confluency, they were detached with Detachin (Genlantis, USA) and resuspended in serum free medium (C5467 SAFC, Switzerland) containing 25 mM HEPES, 0.04 mg/ml soy bean trypsin inhibitor (T6522 Sigma-Aldrich), and 100 U/ml penicillin/streptomycin and were kept in suspension for QPatch experiments.
Automated patch-clamp whole-cell recordings were performed using a QPatch 16 HT system and disposable single-hole QPlates (Sophion, Denmark). […]

CN(CCOc1ccc(NS(C)(=O)=O)cc1)CCc1ccc(NS(C)(=O)=O)cc1 [Dofetilide]
IC50 (hKCa2.3 [1]; ref Simó-Vicens et al., 2017a): 90 µM | IC50 (hKCa2.2 [2]): 60 µM | HR, % of baseline values ([3]; 10 nM, TMC 94 ± 4%): 83 ± 3% | QTcB ([3]; 10 nM, TMC 271 ± 5 ms): 306 ± 9 ms | AERP ([3]; 30 nM, TMC 64 ± 6 ms): 80 ± 4 ms | HR, % of baseline values ([3]; 30 nM, TMC 91 ± 4%): 80 ± 3% | QTcB ([3]; 30 nM, TMC 269 ± 6 ms): 313 ± 9 ms | Effect on AERP (guinea pigs; 0.01 mg/kg infused over 20 min): No effect on AERP | HR, % of the baseline average (guinea pigs; 0.01 mg/kg, minimum, 5 min after end of infusion, TMC 93 ± 2%): 82 ± 3% | QTcB (guinea pigs; after 5 min of infusion, 0.01 mg/kg over 20 min, TMC 280 ± 9 ms): 319 ± 11 ms

CC(=O)Nc1cccc2[nH]c(N[C@H](C)c3cccc(C(F)(F)F)c3)nc12 [AP14145]
IC50 (hKCa2.2 [4]): 1.1 µM | IC50 (hKCa2.3 [1]; ref Diness et al., 2017): 1.3 µM | IC50 (hKv11.1 [5]): 71.8 µM | IC50 (hKCa2.3 [6]): 1.1 µM | AERP ([3]; 10 µM, end of wash-in, TMC 61 ± 5 ms): 77 ± 2 ms | AERP (maximum) ([3]; 30 µM, TMC 64 ± 6 ms): 93 ± 2 ms | AERP (maximum during infusion) (guinea pigs; 13.3 mg/kg infused over 20 min, TMC 75 ± 3 ms): 113 ± 6 ms | AERP (guinea pigs; after 6 min of i.v. infusion (4 mg/kg given), TMC 72 ± 2 ms): 97 ± 6 ms

Cc1nccn1CC1CCc2c(c3ccccc3n2C)C1=O (stereo not drawn) [Ondansetron]
Effect on IKCa (hKCa2.2 [7]; 1 µM, hKCa2.2-expressing HEK cells, 400 nM intracellular calcium, n = 5): failed to inhibit IKCa; also recorded: did not inhibit IKCa | IC50 (hKCa2.2 [7]; hKCa2.2, manual patch clamp, present study): > 1 µM | IC50 (hKCa2.3 [8]; hKCa2.3, automated patch clamp, present study, n = 8): > 30 µM | Effect on IKCa (hKCa2.3 [8]; up to 30 µM, hKCa2.3 current): did not inhibit IKCa | QTcB ([3]; 3 µM, TMC 269 ± 6 ms): 294 ± 5 ms | Effect on AERP compared to TMC ([3]; concentrations up to 3µM): did not affect AERP significantly | Effect on HR compared to TMC ([3]; concentrations up to 3µM): did not significantly affect HR | IC50 (hKCa2.2 [9]): > 30 µM | Concentration from which IKr is blocked (hKv11.1 [10]): ≥ 3000 nM
